{
  "source": "patent EP0257993B1",
  "about": "“Nucleic acid fragment encoding herbicide resistant plant acetolactate synthase” (priority 1986, dated 1988)",
  "key": {"[1]": {"test_system": "Sensitive N. tabacum Cells", "test": "Co-cultivation of N. tabacum protoplasts with A. tumefaciens, colony formation on selective media", "assay_type": "cell-based, Nicotiana tabacum var. Wisconsin 38", "details": "for Number of Colony Forming Units derived from 10^5 Protoplast Equivalents One Month after Co-cultivation: Table 7", "protocol": "Sterile tobacco (Nicotiana tabacum var. Wisconsin 38) plants were cultured from 1 cm apical or auxillary explants on OMS Medium in Magenta Boxes under a cycle of a 16 hour light period (6,000-8,000 lux) followed by an 8 hour dark period. When the plants were 5-7 weeks old, fully expanded leaves (3-6 leaves down from the apex) were removed, and two leaves each were placed, top surface down, on 20 mL of protoplast isolation medium in a 100 x 25 mm petri dish. The leaves were then submerged and finely divided with a sharp surgical blade. The midrib was held and the cuts were made outward from it towards the leaf margin at approximately 2 mm intervals. The petri dishes were then sealed with parafilm and the macerated tissue incubated overnight (14-17 hours) in darkness at 27-29°C with gentle gyrotory agitation (20-25 rpm).\nThe glass tubing was placed in a Babcock bottle, and the cheesecloth was wetted with K3/S(1) Medium. The digested leaf tissue from two petri dishes was carefully poured into the funnel. The cheesecloth was rinsed and expressed into the bottle. The loaded bottles were topped with K3/S(1) Medium, covered with foil and centrifuged at approximately 100 x g for 10 minutes. The floating protoplasts (1-2 mL) were collected with a 1 mL serological pipette and placed in 20 mL of K3/S(1) Medium in another Babcock bottle. After resuspending the protoplasts by gently swirling, the Babcock bottles were topped and centrifuged as before. The floating protoplasts (1-2 mL) were collected as described above and placed in 30 mL of K3/G(1) Medium. The protoplasts were counted in a hemacytometer, and the volume was adjusted to give 1 x 10^+5 protoplasts/mL. 5 mL aliquots of the protoplasts were plated in petri dishes [100 x 20 mm tissue-culture petri dishes (Corning); these dishes were used in all subsequent protoplast manipulations] and cultured in darkness.\nWhen the optical density (at 550 nm) of the A. tumefaciens cultures was 0.6 (log phase culture), approximately 6 hours after dilution, the bacteria were added to plant cells at a multiplicity of approximately 50 bacteria/plant cell (an optical density of 1.0 at 550 nm = 1.4 x 10^9 bacteria). The bacteria and plant cell mixture was co-cultivated for 66 hours at 24°C in low light (approximately 500 lux). Non-transformed protoplast controls were incubated similarly, but without agrobacteria. The following protocol is carried out for each co-cultivation (transformed cells with different agrobacteria, as well as non-transformed cells).\nCo-cultivation was terminated by adding 20 mL of a 1:1 mixture of K3/G(2) Medium:C Medium supplemented with 500 mg/liter of cefotaxime (to select against the agrobacteria) to 5 mL of the co-cultivation mixture. The co-cultivated cells were gently and thoroughly resuspended in the new medium by mixing with a 5 or 10 mL serological pipette. The cell density was 2 x 10^4 protoplast equivalents/mL (protoplast equivalents = initial protoplasts, assuming 100% recovery and cell survival) and the osmoticum was 0.35 M. Three 5 mL aliquots of each culture were dispensed into fresh petri dishes.\nFrom this juncture until the cells were embedded in solid medium, the cells were cultured in low light (500-1500 lux) without motion and were aseptically transferred to different media. […] For these transfers, the contents of each plate were collected with a 5 mL serological pipette, placed in separate 15 mL polystyrene conical centrifuge tubes and centrifuged at approximately 50 x g for 5-10 minutes. The supernatant fluid was removed with a pipette without disrupting the loose pellet. Pellets of co-cultivated cells from each plate were then gently resuspended in the appropriate fresh medium.\nEach of these cultures was returned to the petri dishes from which they were taken; in this way not all cells needed to be pelleted to effect a medium exchange with minimal cell loss."}, "tobacco plant cells": {"test_system": "tobacco plant cells", "test": "Herbicide resistance in plant cells transformed with site specific mutant sugarbeet ALS gene", "assay_type": "cell-based", "details": "2x10^5 starting plant cells; for Kanamycin^R: kanamycin at 50ppm; for Chlorsulfuron^R: chlorsulforon at 2ppb", "protocol": "Introduction of the ALS genes into herbicide sensitive tobacco and sugarbeet, by co-cultivation of the plant cells with A. tumefaciens carrying the ALS genes in the binary vector, was performed as described in EXAMPLE I and EXAMPLE II. Herbicide resistant transformants were obtained with three of the four mutant sugarbeet ALS genes. The frequency of obtaining herbicide resistant transformants was lower than that for kanamycin resistant transformants, and also lower than the frequency of herbicide resistant transformants obtained when the tobacco SURB-Hra gene was used. […] This may reflect either insufficient nucleotide regulatory sequences upstream or downstream of the mutant sugarbeet ALS genes in the DNA fragments used or poor utilization of sugarbeet nucleotide regulatory sequences in tobacco or both. […]\nGene introductions were done by standard co-cultivation method. […] Selection was with chlorsulforon at 2ppb or kanamycin at 50ppm."}, "alfalfa callus": {"test_system": "alfalfa callus", "test": "Resistant growth of transformed alfalfa callus and tissue", "assay_type": "cell-based, Medicago sativa cv. Rangelander", "protocol": "These explants were dipped into a log phase Agrobacterium culture prepared as described in EXAMPLE I, transferred to fresh co-cultivation plates, and cultured at 24°C with 16 hr. days for 3 days.\nThe bacteria were killed by washing the explants for 3 hrs. with gentle agitation in washing media, and cultured on fresh selection plates.\nThe explants were subcultured every 3-4 weeks. […] When callus became more organized, (areas are darker green and more compact) it was transferred to fresh maturation media."}, "[2]": {"test_system": "Cells of N.tabacum cv. W38", "test": "Level of chlorsulfuron resistance in transformed N. tabacum colonies", "assay_type": "cell-based"}, "[3]": {"details": "Gene Origin Sugarbeet, ala(122)-pro"}, "[4]": {"details": "Gene Origin Sugarbeet, pro(197)-ala/trp(591)-leu"}, "[5]": {"details": "Gene Origin Sugarbeet, pro(197)-ala"}, "[6]": {"details": "Gene Origin Sugarbeet, trp(591)-leu"}, "[7]": {"details": "Gene Origin Tobacco, pro(197)-ala/trp(591)-leu"}},
  "data": [
    {"smiles": "NC[C@H]1O[C@H](O[C@H]2[C@H](O)[C@@H](O[C@H]3O[C@H](CO)[C@@H](O)[C@H](N)[C@H]3O)[C@H](N)C[C@@H]2N)[C@H](O)[C@@H](O)[C@@H]1O", "note": "[Kanamycin]", "values": [
      {"measurement": "Number of colony forming units derived from 10^5 protoplast equivalents one month after co-cultivation", "setting": "[1]; Table 4, N.t. (non-cocultured control plant cells), Kanamycin 50 µg/mL", "result": 0},
      {"measurement": "Number of colony forming units derived from 10^5 protoplast equivalents one month after co-cultivation", "setting": "[1]; Table 4, N.t./P145 (pAGS145, herbicide-sensitive ALS from phage clone 1), Kanamycin 50 µg/mL", "result": "5.9 x 10^2"},
      {"measurement": "Number of colony forming units derived from 10^5 protoplast equivalents one month after co-cultivation", "setting": "[1]; Table 5, N.t. (non-cocultured control plant cells), Kanamycin 50 µg/mL", "result": 0},
      {"measurement": "Number of colony forming units derived from 10^5 protoplast equivalents one month after co-cultivation", "setting": "[1]; Table 5, N.t./P112 (pAGS112, kanamycin resistance vector), Kanamycin 50 µg/mL", "result": "2.5 x 10^3"},
      {"measurement": "Number of colony forming units derived from 10^5 protoplast equivalents one month after co-cultivation", "setting": "[1]; Table 5, N.t./p152 (pAGS152, phage clone 3), Kanamycin 50 µg/mL", "result": "6.2 x 10^2"},
      {"measurement": "Number of Colony Forming Units derived from 10^5 Protoplast Equivalents One Month after Co-cultivation", "setting": "[1]; N.t. (non co-cultured plant cells), Kanamycin 50 ug/ml", "result": 0},
      {"measurement": "Number of Colony Forming Units derived from 10^5 Protoplast Equivalents One Month after Co-cultivation", "setting": "[1]; N.t./P312 (pAGS312, C3 subclone, φ31 orientation 1), Kanamycin 50 ug/ml", "result": 65},
      {"measurement": "Number of Colony Forming Units derived from 10^5 Protoplast Equivalents One Month after Co-cultivation", "setting": "[1]; N.t./p152 (pAGS152, S4/Hra subclone), Kanamycin 50 ug/ml", "result": 88},
      {"measurement": "Number of Colony Forming Units derived from 10^5 Protoplast Equivalents One Month after Co-cultivation", "setting": "[1]; N.t./p313 (pAGS313, C3 subclone, φ31 orientation 2), Kanamycin 50 ug/ml", "result": 48},
      {"measurement": "Number of Colony Forming Units derived from 10^5 Protoplast Equivalents One Month after Co-cultivation", "setting": "[1]; N.t./p351 (pAGS351, C3 subclone, φ35), Kanamycin 50 ug/ml", "result": 139},
      {"measurement": "Number of Colony Forming Units derived from 10^5 Protoplast Equivalents One Month after Co-cultivation", "setting": "[1]; N.t./p381 (pAGS381, C3 subclone, φ38), Kanamycin 50 ug/ml", "result": 87},
      {"measurement": "Kanamycin^R", "setting": "tobacco plant cells; [3]", "result": 415},
      {"measurement": "Kanamycin^R", "setting": "tobacco plant cells; [4]", "result": 1362},
      {"measurement": "Kanamycin^R", "setting": "tobacco plant cells; [5]", "result": 1073},
      {"measurement": "Kanamycin^R", "setting": "tobacco plant cells; [6]", "result": 1080},
      {"measurement": "Kanamycin^R", "setting": "tobacco plant cells; [7]", "result": 1083},
      {"measurement": "explants that developed callus resistant to kanamycin", "setting": "alfalfa callus; kanamycin at 100mg/L", "result": "Less than 1%"}
    ]},
    {"smiles": "COc1nc(C)nc(NC(=O)NS(=O)(=O)c2ccccc2Cl)n1", "note": "[chlorsulfuron]", "values": [
      {"measurement": "chlorsulfuron resistance conferred in transformed tobacco calluses", "setting": "[1]; 6.3 kb DNA fragment (SURA-C3)", "result": 2, "unit": "ppb"},
      {"measurement": "Number of colony forming units derived from 10^5 protoplast equivalents one month after co-cultivation", "setting": "[1]; Table 4, N.t. (non-cocultured control plant cells), Chlorsulfuron 2 ng/mL", "result": 0},
      {"measurement": "Number of colony forming units derived from 10^5 protoplast equivalents one month after co-cultivation", "setting": "[1]; Table 4, N.t./P145 (pAGS145, herbicide-sensitive ALS from phage clone 1), Chlorsulfuron 2 ng/mL", "result": 0},
      {"measurement": "Number of colony forming units derived from 10^5 protoplast equivalents one month after co-cultivation", "setting": "[1]; Table 5, N.t. (non-cocultured control plant cells), Chlorsulfuron 2 ng/mL", "result": 0},
      {"measurement": "Number of colony forming units derived from 10^5 protoplast equivalents one month after co-cultivation", "setting": "[1]; Table 5, N.t./P112 (pAGS112, kanamycin resistance vector), Chlorsulfuron 2 ng/mL", "result": 0},
      {"measurement": "Number of colony forming units derived from 10^5 protoplast equivalents one month after co-cultivation", "setting": "[1]; Table 5, N.t./p152 (pAGS152, phage clone 3), Chlorsulfuron 2 ng/mL", "result": "6.5 x 10^2"},
      {"measurement": "Number of Colony Forming Units derived from 10^5 Protoplast Equivalents One Month after Co-cultivation", "setting": "[1]; N.t. (non co-cultured plant cells), Chlorsulfuron 2 ng/ml", "result": 0},
      {"measurement": "Number of Colony Forming Units derived from 10^5 Protoplast Equivalents One Month after Co-cultivation", "setting": "[1]; N.t./P312 (pAGS312, C3 subclone, φ31 orientation 1), Chlorsulfuron 2 ng/ml", "result": 0},
      {"measurement": "Number of Colony Forming Units derived from 10^5 Protoplast Equivalents One Month after Co-cultivation", "setting": "[1]; N.t./p152 (pAGS152, S4/Hra subclone), Chlorsulfuron 2 ng/ml", "result": 83},
      {"measurement": "Number of Colony Forming Units derived from 10^5 Protoplast Equivalents One Month after Co-cultivation", "setting": "[1]; N.t./p313 (pAGS313, C3 subclone, φ31 orientation 2), Chlorsulfuron 2 ng/ml", "result": 0},
      {"measurement": "Number of Colony Forming Units derived from 10^5 Protoplast Equivalents One Month after Co-cultivation", "setting": "[1]; N.t./p351 (pAGS351, C3 subclone, φ35), Chlorsulfuron 2 ng/ml", "result": 32},
      {"measurement": "Number of Colony Forming Units derived from 10^5 Protoplast Equivalents One Month after Co-cultivation", "setting": "[1]; N.t./p381 (pAGS381, C3 subclone, φ38), Chlorsulfuron 2 ng/ml", "result": 18},
      {"measurement": "Chlorsulfuron^R", "setting": "tobacco plant cells; [3]", "result": 0},
      {"measurement": "Chlorsulfuron^R", "setting": "tobacco plant cells; [4]", "result": 91},
      {"measurement": "Chlorsulfuron^R", "setting": "tobacco plant cells; [5]", "result": 35},
      {"measurement": "Chlorsulfuron^R", "setting": "tobacco plant cells; [6]", "result": 2},
      {"measurement": "Chlorsulfuron^R", "setting": "tobacco plant cells; [7]", "result": 698},
      {"measurement": "chlorsulfuron resistance conferred in transformed tobacco calluses", "setting": "[2]; 8.3 kb DNA fragment (SURB-Hra)", "result": "up to 2000 ppb"},
      {"measurement": "concentration colonies could tolerate", "setting": "[2]; colonies derived from co-cultivation with A. tumefaciens containing pAGS152", "result": "up to 2000 ppb"},
      {"measurement": "concentration at which colonies are sensitive", "setting": "[2]; wild type colonies", "result": 2, "unit": "ppb"},
      {"measurement": "resistance of kanamycin resistant sectors", "setting": "alfalfa callus; chlorsulfuron at 50 ppb", "result": "resistant"},
      {"measurement": "chlorsulfuron concentration at which transformant tissue was able to grow", "setting": "alfalfa callus; one transformant", "result": 1000, "unit": "ppb"},
      {"measurement": "chlorsulfuron concentration at which transformant tissue was able to grow", "setting": "alfalfa callus; the other two transformants", "result": 5000, "unit": "ppb"}
    ]}
  ]
}
